Experimental findings from PubChem BioAssay AID743417 (Broad Institute, 2014) are described below.

The subject of this assay is Clone20 osteoblast Shn3 3'UTR firefly luciferase, 24 h. Briefly: Shn3 3'UTR reporter inhibitors, dose response, cell-based, Clone20 osteoblasts, luminescence, dry powder, set 2 (AID 743417).

The structures appear in SMILES notation. Inconclusive results are not listed. The source made the active and inactive calls.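 Rule for the calls: active = compounds lowering the luciferase signal with a fitted half-maximal dose at most twice their top valid dose (cut at about 30 µM in these data); inconclusive = flat fits with moderate signal loss, or poor fits; inactive = the rest.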 Where only a bound is given, the exact number is not on record here.

The term AC50 denotes the concentration giving half of the maximal activity seen.

Regarding `CCn1c(N2CCN(S(=O)(=O)c3ccc(Cl)cc3)CC2)nc2ccccc21`, the AC50 was 9140 nM. Under `Cc1ccccc1C(=O)N1CCN(c2ccc(NC(=O)c3ccc([N+](=O)[O-])o3)cc2)CC1` stands 864 nM; under `C=CCOC(=O)C1=C(C)N=C2SCCC(=O)N2C1c1cccs1` (stereo not given), > 70000 nM (inactive); under `c1ccc(CNc2c(-c3cccc(SC4CCCCC4)c3)nc3ccccn23)cc1`, 3460 nM.

In the case of `O=C1C=CC(=O)N1CCNc1ncc(C(F)(F)F)cc1Cl`, the AC50 is 947 nM. Under `O=C1N(c2ccccc2)C[C@@H]2C[C@@H](c3cc4ccccc4o3)N3CCC[C@@]123` stands 536 nM; under `c1ccc(-c2cc3nc(NCC4CC4)nc(NCC4CCCCC4)c3s2)cc1`, 2670 nM. Under `CN(C)CCN1C(=O)c2cccc3cc([N+](=O)[O-])cc(c23)C1=O` stands 1110 nM. Under `Cc1ccc(NC(=O)C2CCC(C(C)(C)C)CC2)cc1S(=O)(=O)N1CCOCC1` (stereo not given) stands 12100 nM; under `Cc1nc2ccccc2n1Cc1ccc(Cl)cc1`, 1460 nM. For the molecule `CNc1ccccc1C(C)(C)c1cc(-c2cccc(OC)c2)no1`, the AC50 was 1920 nM. As to `CC(N)C(=O)NC1C2C(=C(O)CC(O)C2O)C(=O)OC1(C)C(Cl)Cl` (stereo not given), the AC50 was 1850 nM. Under `CCCN(CCC)S(=O)(=O)c1ccc(C(=O)Nc2nnc(-c3cc(OC)cc(OC)c3)o2)cc1` stands 2640 nM; under `COc1ccc(S(=O)(=O)N2CCN(c3cc(-c4ccccc4)nc4ncnn34)CC2)cc1`, 3890 nM. Under `Cc1ccc(S(=O)(=O)Nc2ccc3ncccc3c2)cc1` stands 2200 nM; under `COc1ccc(CN2CCC(N(CCc3ccccc3)Cc3ccccc3)CC2)c(OC)c1`, 8100 nM.

For `CCCCn1c(CN2CCN(c3ccccc3)CC2)nc2c1c(=O)n(C)c(=O)n2C`, the AC50 is 2050 nM. For `CCN(CC)S(=O)(=O)c1ccc(N2CCOCC2)c(NC(=O)c2nn(C(C)C)c(=O)c3ccccc23)c1`, the AC50 is 15600 nM. Under `Nc1cc2c(cc1Br)[nH]c(=O)c1ccccc12` stands 5460 nM. Under `CSc1nnc(NC(=O)c2nc(S(=O)(=O)Cc3ccccc3F)ncc2Cl)s1` stands 1550 nM; under `S=C(NNc1ccnc2cc(Cl)ccc12)Nc1ccc(Cl)cc1Cl`, 4900 nM; under `CN(C)CC(C(=O)c1ccccc1)c1ccccc1` (stereo not given), 2800 nM.

Turning to `Cc1cccc(Cn2c(NCCO)nc3c2c(=O)n(C)c(=O)n3C)c1`, the half-maximal activity concentration (AC50) was 528 nM.

On to `Cc1cc(CN2CCOCC2)c(O)c(C2(C)CCCCC2)c1`, for which the AC50 was 32300 nM.

For `CCc1nnc(NC(=O)c2cccc(C(=O)Nc3nnc(CC)s3)n2)s1`, the AC50 was 1450 nM. Under `O=C(c1ccc(Cl)cc1)C1CCCN(Cc2cccc3ncccc23)C1` (stereo not given) stands 4520 nM. Turning to `Cc1cccc2sc(NNC(=O)c3ccc(S(=O)(=O)N4CC(C)CC(C)C4)cc3)nc12` (stereo not given), the AC50 is 2570 nM.

For the molecule `COc1cccc(N2CCN(c3ncnc4c3[nH]c3ccc(F)cc34)CC2C)c1` (stereo not given), the AC50 is 1310 nM.

Regarding `Cc1cccc2c(C(=O)N3CCN(c4ccccn4)CC3)cc(-c3cccc(Br)c3)nc12`, the AC50 is 6480 nM.

As for `CC(C)(C)n1nnnc1C(c1cccs1)N1CCCC2(CCCCC2)C1` (stereo not given), the AC50 is 21700 nM. Under `COc1ccc(CCNc2cc(N3CCN(C(=O)c4ccccc4F)CC3)ccc2[N+](=O)[O-])cc1OC` stands 1260 nM; under `CCC(C)(O)C(=O)OC1C(=O)OC2CC3C(C)=CC(=O)C(O)C3(C)C3C4(O)OCC23C1C(C)C4O` (stereo not given), 866 nM; under `CNC[C@H](CC1CCCCC1)NC[C@H](Cc1ccccc1)NCCC12CC3CC(CC(C3)C1)C2`, 5510 nM. Under `CN1CCN(C(c2ccc(Br)cc2)c2cc(Cl)c3cccnc3c2O)CC1` (stereo not given) stands 3610 nM.

With `CCCNC(=O)c1nnsc1S(=O)c1ccc(Cl)cc1` (stereo not given), the AC50 is 1260 nM. Under `C[C@]12CC[C@H](O)CC1=CCC1C2CC[C@@]2(C)C1CCC21OCCO1` (stereo not given in full) stands 27300 nM; under `C=C1C(=O)c2sccc2C(c2ccc(OC)c(OC)c2)C1COC(C)=O` (stereo not given), 662 nM; under `CCC(C)C(NC(=O)CCCNC(=O)CCC(=O)OC1O[C@H]2OC3(C)CC[C@H]4[C@H](C)CCC(C1C)C24OO3)C(=O)O` (stereo not given in full), 1020 nM. Under `C[C@H](NC(=O)c1ncn2c1c(=O)[nH]c1ccc(Br)cc12)c1ccccc1` stands 8760 nM; under `CCCCCCNC(=O)O[C@H]1Cn2c(=O)ccc(=O)n2[C@@H]2CN(S(=O)(=O)c3ccc(C)cc3)C[C@]12O`, 14100 nM. Take `O=C(c1nnsc1S(=O)(=O)c1ccc(Cl)cc1)N1CCOCC1`: the AC50 is 7740 nM. As to `COc1cc(NC(=O)c2cc3c(Cl)nc4ccccc4c3s2)cc(OC)c1OC`, the concentration at half-maximal activity (AC50) was 24400 nM.

With `COc1ccc(S(=O)(=O)N2CCN(C(=O)c3cc(-c4ccc(Br)cc4)n[nH]3)CC2)cc1OC`, the AC50 was 4550 nM. For `Cc1c(C(=O)N(Cc2cccc(Br)c2)C2CCS(=O)(=O)C2)oc2ccccc12` (stereo not given), the AC50 was 35900 nM. Under `Cc1cccc(CS(=O)(=O)c2ncc(Cl)c(C(=O)NCc3ccc4c(c3)OCO4)n2)c1` stands 938 nM; under `COc1ccc(NC(=O)COc2ccc(N(C)S(=O)(=O)c3ccc(Cl)cc3)cc2)cc1OC`, 1350 nM. Under `Cc1ccc(S(=O)(=O)N2[C@H](c3cccc(Cl)c3)CC(=O)[C@@H]3CN(S(=O)(=O)c4ccccc4C)[C@H](c4ccc(Cl)cc4)C[C@@H]32)cc1` stands 289 nM; under `O=C(/C=C/c1ccccc1)NC(NC(=S)Nc1ccc(Cl)cc1)C(Cl)(Cl)Cl` (stereo not given), 5130 nM; under `COc1ccc(NC(=O)c2nc(S(=O)(=O)Cc3cccc(C)c3)ncc2Cl)c(OC)c1`, 299 nM. Under `CN(C(=O)OC(C)(C)C)c1ccc(-c2nc3ccccc3s2)cc1` stands below 260 nM; under `Cn1nc(CC(=O)Nc2ccc3c(c2)OCCO3)c2ccccc2c1=O`, 899 nM; under `CCC1CCCCN1S(=O)(=O)c1ccc(NC(=O)c2nc(S(C)(=O)=O)ncc2Cl)cc1` (stereo not given), 341 nM. With `Cc1cc(C)c(C(N)=O)c(SCC(=O)c2cc(C)n(-c3cc(C)on3)c2C)n1`, the AC50 was 942 nM.

For the molecule `C=CCOC(=O)c1[nH]c2c(c1C)C(=O)CC(c1cc(OC)c(OC)c(OC)c1)C2` (stereo not given), the AC50 is 1830 nM. Under `Cc1csc(=O)n1CC(=O)OCC(=O)c1c(N)n(C)c(=O)n(C)c1=O` stands 27100 nM. Under `CN(C)C1=NC[C@H](Cc2ccccc2)N1CCCC1CCCCC1` stands 1470 nM. Under `CC1CC(C)CC(C)C(O)C(C#N)=CC=CCC(C2CCCC2C(=O)O)OC(=O)CC(O)C(C)C1` (stereo not given) stands below 260 nM; under `Cc1ccc(S(=O)(=O)N2C[C@@H]3CCCC[C@@H]3[C@@H](C)[C@H]2c2cn(Cc3ccccc3)c3ncccc23)cc1`, 1920 nM; under `CCc1nnc(NC(=O)c2nc(S(=O)(=O)Cc3ccccc3)ncc2Cl)s1`, 2720 nM. Regarding `C=C1C(=O)O[C@@H]2C[C@@H](C)[C@@H]3C=CC(=O)[C@@]3(C)[C@@H](O)[C@H]12`, the AC50 was 825 nM.

For `CSc1ccc(CN(C)C(=O)c2cccc(S(=O)(=O)N3CCN(Cc4ccccc4)CC3)c2)cc1`, the AC50 was 2890 nM.

Regarding `COc1cccc(-c2cc(N3CCN(C(=O)c4ccoc4)CC3)n3nc(-c4cccc(Cl)c4)cc3n2)c1`, the AC50 was 6220 nM.

With `Nc1nc(Cl)cc(N2CCC(c3cc(-c4ccc(Cl)cc4Cl)n[nH]3)CC2)n1`, the AC50 is 4940 nM.

As to `COc1ccc(NS(=O)(=O)c2cccc(NC(=O)c3ccc(S(=O)(=O)N4CCCCCC4)cc3)c2)cc1`, the AC50 is 829 nM. Under `CN1CCN(S(=O)(=O)c2ccc(Sc3nnnn3-c3ccccc3)c([N+](=O)[O-])c2)CC1` stands 3900 nM; under `Cc1cc(Sc2ncnc(N)c2[N+](=O)[O-])ncn1`, 5700 nM. Under `COc1ccc2c(c1)c(CC(=O)Nc1cc(C)ccc1C)c(C)n2C(=O)c1ccc(Cl)cc1` stands 5690 nM; under `C=CCN(c1ccccc1)S(=O)(=O)c1cccc(C(=O)Nc2nc3ccccc3[nH]2)c1`, 10000 nM.

As for `N=C1S/C(=C\c2ccc(-c3cccc(Cl)c3)o2)C(=O)N1c1nccs1`, the AC50 is 2820 nM. Under `CC(C)N=C(N)N=C(N)Nc1ccc(Cl)cc1` stands 370 nM. `CC1=NN(c2nc3ccccc3[nH]2)C(=O)C1Cc1ccccc1` (stereo not given): the AC50 is 4110 nM. Under `CCCCC(=O)NC(c1ccc(OC)cc1)c1ccc2cccnc2c1O` (stereo not given) stands 2280 nM; under `CCOc1cc(C(=O)CSc2nnc(CNc3ccc(Cl)cc3)o2)ccc1NC(=O)CC`, 7730 nM; under `CCN(CC)CCN1C(=O)/C(=C\c2ccc(Cl)c([N+](=O)[O-])c2)SC1=Nc1ccc(OC)cc1`, 2110 nM.

With `CCCOc1ccccc1C1CC(=O)Nc2cc3c(cc21)OCCO3` (stereo not given), the AC50 is 3660 nM. In the case of `O=C(/C(=C/c1ccc(Cl)cc1)c1nc2ccccc2[nH]1)c1cccs1`, the AC50 was 2660 nM.

Regarding `Cc1ccc(-c2nn(C(C)(C)C)c3ncnc(N)c23)cc1`, the AC50 is 5890 nM.

Turning to `O=C(Nc1ccc(Oc2ccccc2)cc1)C1CCN(c2c3c(nc4ncnn24)CCC3)CC1`, the AC50 was 5640 nM. Under `COc1ccc(-n2ncc3c(N4CCCCC4)ncnc32)cc1` stands 2870 nM; under `CC(C)C[C@@H](CO)N(Cc1ccccc1)S(=O)(=O)N(Cc1ccccc1)[C@@H](CO)CC(C)C`, 11400 nM; under `COc1ccc(NC(=O)CSc2ncccc2C(=O)OC(C)C)cc1OC`, 4100 nM. Under `O=C(c1ccccc1)c1ccccc1N1C(=O)C=CC1=O` stands 16700 nM; under `C=CCSc1nc2ccccc2n1C(=O)/C=C/c1ccc(OC)c(OC)c1`, 1310 nM; under `CC1Sc2ccc(S(=O)(=O)N3CCC(C(=O)Nc4cccc(Cl)c4)CC3)cc2NC1=O` (stereo not given), 3270 nM. On to `Cc1cc(Cl)c(S(=O)(=O)N2CCSCC2)cc1OCC(=O)NC1CCCCC1`, for which the half-maximal activity concentration (AC50) was 4110 nM.

For the molecule `CCCCC(=O)NC(c1ccccc1Cl)c1ccc2cccnc2c1O` (stereo not given), the AC50 is 1120 nM.

`CCOc1cc(C)c(S(=O)(=O)Nc2ccc3cn[nH]c3c2)cc1C`: the AC50 is 4890 nM.

Regarding `Cc1ccc(C(=O)Nc2cccc3[nH]c(C(F)(F)F)nc23)cc1`, the AC50 is 3930 nM. Under `Cc1nnc(NC(=O)c2nc(S(=O)(=O)Cc3ccccc3C)ncc2Cl)s1` stands 812 nM; under `O=C(Nc1ccc(N2CCN(C(=O)c3ccc(Cl)cc3)CC2)cc1)c1ccc2c(c1)OCCO2`, 2540 nM.
